Data on 13 molecules can be found in ChEMBL document CHEMBL4118151, “Highly potent activity of isopulegol-derived substituted octahydro-2H-chromen-4-ols against influenza A and B viruses” (Bioorg Med Chem Lett, 2018).

pIC50: −log10 of the molar value. Calls of active or inactive are those of the source. The rule behind the calls is not given here.

What is called CC50 is the concentration giving 50% cytotoxicity. Low readings indicate greater toxicity to the cells, high ones lower toxicity to the cells. Usually pIC50 stands for the IC50 on a negative log10 scale, so that one unit is a factor of ten.

Series [1] can be described thus: Cytotoxicity against MDCK cells after 48 hrs by MTT assay. Type of series: cell-based, Canis lupus familiaris. The note with it: dog. Background: Tetrazolium dyes change colour on reduction, which living cells bring about.
Series [2] deals with Influenza A virus. As to the kind of experiment: Antiviral activity against amantadine/oseltamivir-susceptible Influenza A virus (A/Singapore/1/57(H2N2)) infected in MDCK cells assessed as inhibition of viral replication after 48 hrs by hemagglutination test. Type of series: functional, organism-based, Influenza A virus (A/Singapore/1/1957(H2N2)).
Series [3] concerns H3N2 subtype. Kind of series: Antiviral activity against amantadine/oseltamivir-susceptible Influenza A virus (A/Aichi/2/68(H3N2)) infected in MDCK cells assessed as inhibition of viral replication after 48 hrs by hemagglutination test. The note with it: A/Aichi/2/1968(H3N2). The format is functional, organism-based.
Series [4] has as its system Influenza A virus. As to the kind of experiment: Antiviral activity against amantadine/oseltamivir-susceptible Influenza A virus (A/mallard/Netherlands/12/00(H7N3)) infected in MDCK cells assessed as inhibition of viral replication after 48 hrs by hemagglutination test. The format is functional, organism-based, Influenza A virus (A/mallard/Netherlands/12/2000(H7N3)).

For series [5], the system named is Influenza A virus. Kind of series: Antiviral activity against amantadine/oseltamivir-susceptible Influenza A virus (A/mallard/Pennsylvania/10218/84(H5N2)) infected in MDCK cells assessed as inhibition of viral replication after 48 hrs by hemagglutination test. The format is functional, organism-based, Influenza A virus (A/mallard/Pennsylvania/10218/1984(H5N2)).

Series [6] is described as follows: Selectivity index, ratio of CC50 for MDCK cells to IC50 for amantadine/oseltamivir-susceptible Influenza A virus (A/Singapore/1/57(H2N2)). The format is toxicity. The settings on record: dog, read-out: Ratio CC50/IC50.
Series [7] can be described thus: Selectivity index, ratio of CC50 for MDCK cells to IC50 for amantadine/oseltamivir-susceptible Influenza A virus (A/Aichi/2/68(H3N2)). The note with it: dog, read-out: Ratio CC50/IC50. The format is toxicity.
Series [8] in a line: Selectivity index, ratio of CC50 for MDCK cells to IC50 for amantadine/oseltamivir-susceptible Influenza A virus (A/mallard/Pennsylvania/10218/84(H5N2)). Type of series: toxicity. The settings on record: dog, read-out: Ratio CC50/IC50.
Series [9] is described as follows: Selectivity index, ratio of CC50 for MDCK cells to IC50 for amantadine/oseltamivir-susceptible Influenza A virus (A/mallard/Netherlands/12/00(H7N3)). The format is toxicity. The note with it: dog, read-out: Ratio CC50/IC50.
In series [10] the test system is Influenza A virus. As to the kind of experiment: Antiviral activity against Influenza A virus (A/Puerto Rico/8/34(H1N1)) infected in MDCK cells assessed as inhibition of viral replication at 500 uM up to 2 hrs post-infection by hemagglutination test. The format is functional, organism-based. The note with it: A/Puerto Rico/8/1934(H1N1).

With `C[C@@H]1CC[C@@H]2[C@H](C1)OC1(CCCC1)C[C@@]2(C)O`, half-maximal cytotoxicity in series [1] (CC50 at 48 h) was put at 810 µM. Still for that read-out and setting: the value for `C[C@@H]1CC[C@@H]2[C@@H](C1)OC(C)(C)C[C@]2(C)O` was 816 µM; that for `C[C@@H]1CC[C@@H]2[C@H](C1)OC1(CCCCCC1)C[C@@]2(C)O` was 210 µM.

Consider `CCC1(CC)C[C@@](C)(O)[C@@H]2CC[C@@H](C)C[C@@H]2O1`, for which the CC50 at 48 h in series [1] came to 188 µM. Still for that read-out and setting: the result for `CCCC1(CCC)C[C@@](C)(O)[C@@H]2CC[C@@H](C)C[C@@H]2O1` reads 131 µM; that for `C[C@@H]1CC[C@@H]2[C@H](C1)OC(C)(C)CC2(C)O` (some centres not stated), 72.2 µM; that for `C[C@@H]1CC[C@@H]2[C@H](C1)OC1(CCCCCCC1)C[C@@]2(C)O`, 379 µM. Same read-out and setting: the value for `C[C@@H]1CC[C@@H]2[C@H](C1)OC1(CCCCC1)C[C@@]2(C)O` was 627 µM. On the same count and under the same terms, the value for `NC(=O)c1ncn([C@@H]2O[C@H](CO)[C@@H](O)[C@H]2O)n1` [RIBAVIRIN] was greater than 2130 µM; that for `C[C@@H]1CC[C@@H]2[C@@H](C1)O[C@@H](C1CCCCC1)C[C@@]2(C)O` was 24.2 µM. For the molecule `CC(N)C12CC3CC(CC(C3)C1)C2` (configuration not stated) [RIMANTADINE], the CC50 at 48 h in series [1] was 319 µM. `CCC[C@H]1C[C@@](C)(O)[C@@H]2CC[C@@H](C)C[C@H]2O1` had a CC50 at 48 h in series [1] greater than 1330 µM. The molecule `C[C@@H]1CC[C@@H]2[C@@H](C1)OC(C)(C)C[C@@]2(C)O` returned a CC50 at 48 h in series [1] greater than 1420 µM. The pIC50 is 6.05 in series [2], less than 2.85 in series [3], 3.21 in series [4] and 3.79 in series [5]. For the same molecule, the selectivity ratio was found to be 1570 in series [6], 1 in [7], 9 in [8] and 2 in series [9]. The inhibition entry in series [10] was “Active”.
